According to ChEMBL document CHEMBL1201862, “PubChem BioAssay data set” (2004):
Blank lines part the entries; values can stand above or below the molecule they belong to. Active and inactive are the calls of the source.

What was measured:
[1] = T. cruzi growth inhibition in host cells, dose response, cell-based, plate reader, dry powder, set 2 (AID 652275); assay type: functional
[2] = target: Hepatocyte nuclear factor 4-alpha (Homo sapiens, UniProt P41235); assay type: functional, cell-based;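 further: biochemical luminescence-based dose-response counterscreen measuring inhibition of HNF4 dimerization, run alongside a screen for blockers of ABHD5–perilipin-5 interaction; split luciferase complementation of HNF4 fusion proteins in cell lysate measuring dimerization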
[3] = target: Photoreceptor-specific nuclear receptor (Homo sapiens, UniProt Q9Y5X4); assay type: functional, cell-based;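 further: CHO-S cells with Gal4-NCOR and VP16-NR2E3 two-hybrid luciferase reporter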
[4] = target: T1, Sentrin-specific protease 1 (Homo sapiens, UniProt Q9P0U3); assay: potency of human SENP1 inhibitors, dose response, biochemical, kinetic FRET (AID 651697); assay type: functional; settings: read-out: IC50_Mean
T1 sequence (Q9P0U3 whole entry): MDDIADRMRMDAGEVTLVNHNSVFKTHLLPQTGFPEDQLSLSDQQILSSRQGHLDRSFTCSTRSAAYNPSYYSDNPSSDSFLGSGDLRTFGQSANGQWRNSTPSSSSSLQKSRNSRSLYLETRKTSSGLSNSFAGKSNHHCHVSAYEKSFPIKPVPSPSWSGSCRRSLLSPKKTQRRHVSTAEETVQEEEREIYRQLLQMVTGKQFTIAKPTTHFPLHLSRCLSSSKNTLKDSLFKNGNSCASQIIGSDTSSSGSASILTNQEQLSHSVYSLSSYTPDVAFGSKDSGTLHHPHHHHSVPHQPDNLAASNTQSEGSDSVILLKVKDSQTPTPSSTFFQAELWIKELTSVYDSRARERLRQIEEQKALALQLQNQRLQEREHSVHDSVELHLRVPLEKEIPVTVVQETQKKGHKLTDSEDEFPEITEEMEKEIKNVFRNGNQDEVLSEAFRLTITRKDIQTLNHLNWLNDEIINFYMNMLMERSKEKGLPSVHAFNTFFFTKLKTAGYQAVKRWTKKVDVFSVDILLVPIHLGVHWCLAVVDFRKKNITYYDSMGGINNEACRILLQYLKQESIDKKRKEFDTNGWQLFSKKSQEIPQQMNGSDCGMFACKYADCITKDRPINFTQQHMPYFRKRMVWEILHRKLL

[5] = target: T1, Sentrin-specific protease 1; assay: Dose response confirmation of small molecule inhibitors of the catalytic domain of the SUMO protease, SENP1 in a FRET assay.; assay type: functional; settings: read-out: IC50_Mean
cells [6] = assay type: functional, cell-based
cells [7] = assay type: functional, cell-based; remark: listed apart in the source
[8] = Luminescence Cell-Based Dose Retest to Confirm Inhibitors of Cancer Stem Cells. [Related pubchem assays (depositor defined):AID2717, AID2721]; assay type: functional; settings: Homo sapiens
CHO = assay: cytotoxicity in TLR9-MyD88 CHO cells, dose response, cytotoxicity control for TLR9-MyD88 binding inhibitor project, cell-based, luminescence (AID 588339); assay type: functional, hamster; settings: Cricetulus griseus;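 further: CHO cells stably coexpressing TLR9 and MyD88 fusions from primary screen; compound exposure lasted 48 hours before viability readout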
Beta Lactamase = Beta Lactamase (Pseudomonas aeruginosa, UniProt Q932Y6); assay: beta-lactamase reporter inhibitor potency, dose response, artefact control for TLR9-MyD88 binding inhibitor project, BLA reporter cells, FRET fluorescence (AID 588341); assay type: cell-based;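 further: cell based assay in CHO-K1 cells stably expressing beta-lactamase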
[9] = HEK293T cell cytotoxicity, dose response, cytotoxicity control for HIV Vif inhibitor project, cherry-picks (AID 652208); assay type: functional, cell-based
[10] = target: Voltage-gated inwardly rectifying potassium channel KCNH2 (Homo sapiens, UniProt Q12809); settings: Potency;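 further: confirmatory quantitative high-throughput screen measuring inhibition of hERG channel activity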
[11] = target: T2, Aryl hydrocarbon receptor (Homo sapiens, UniProt P35869); settings: Potency;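 further: confirmatory quantitative high-throughput screen measuring activation of the AhR signaling pathway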
T2 sequence (P35869 whole entry): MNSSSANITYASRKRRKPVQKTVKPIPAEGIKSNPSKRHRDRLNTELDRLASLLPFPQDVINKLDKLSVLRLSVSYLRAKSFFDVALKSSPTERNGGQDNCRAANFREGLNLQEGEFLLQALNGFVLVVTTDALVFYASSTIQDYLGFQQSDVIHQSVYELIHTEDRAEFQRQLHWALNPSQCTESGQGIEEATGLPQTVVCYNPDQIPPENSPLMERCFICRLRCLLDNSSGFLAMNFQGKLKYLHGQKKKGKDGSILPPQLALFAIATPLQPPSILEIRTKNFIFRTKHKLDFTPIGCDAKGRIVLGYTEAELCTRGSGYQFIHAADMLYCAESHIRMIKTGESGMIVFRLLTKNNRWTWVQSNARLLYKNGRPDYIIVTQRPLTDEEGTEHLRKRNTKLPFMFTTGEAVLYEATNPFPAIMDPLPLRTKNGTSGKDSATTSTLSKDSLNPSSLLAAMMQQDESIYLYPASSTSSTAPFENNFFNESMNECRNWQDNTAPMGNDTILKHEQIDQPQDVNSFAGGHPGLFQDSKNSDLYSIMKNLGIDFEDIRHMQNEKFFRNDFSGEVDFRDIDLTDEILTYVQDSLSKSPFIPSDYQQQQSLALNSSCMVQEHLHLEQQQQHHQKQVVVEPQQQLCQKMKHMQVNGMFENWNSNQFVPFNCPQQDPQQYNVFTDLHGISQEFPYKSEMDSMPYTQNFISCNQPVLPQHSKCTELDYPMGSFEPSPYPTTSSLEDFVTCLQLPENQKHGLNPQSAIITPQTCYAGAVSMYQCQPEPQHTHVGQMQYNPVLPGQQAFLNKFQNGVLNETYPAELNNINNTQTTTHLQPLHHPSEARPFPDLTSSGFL
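Wherever EC50 is given: agonist potency from rise in intracellular calcium fluorescence.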

Chain of Voltage-gated inwardly rectifying potassium channel KCNH2 (Q12809 whole entry): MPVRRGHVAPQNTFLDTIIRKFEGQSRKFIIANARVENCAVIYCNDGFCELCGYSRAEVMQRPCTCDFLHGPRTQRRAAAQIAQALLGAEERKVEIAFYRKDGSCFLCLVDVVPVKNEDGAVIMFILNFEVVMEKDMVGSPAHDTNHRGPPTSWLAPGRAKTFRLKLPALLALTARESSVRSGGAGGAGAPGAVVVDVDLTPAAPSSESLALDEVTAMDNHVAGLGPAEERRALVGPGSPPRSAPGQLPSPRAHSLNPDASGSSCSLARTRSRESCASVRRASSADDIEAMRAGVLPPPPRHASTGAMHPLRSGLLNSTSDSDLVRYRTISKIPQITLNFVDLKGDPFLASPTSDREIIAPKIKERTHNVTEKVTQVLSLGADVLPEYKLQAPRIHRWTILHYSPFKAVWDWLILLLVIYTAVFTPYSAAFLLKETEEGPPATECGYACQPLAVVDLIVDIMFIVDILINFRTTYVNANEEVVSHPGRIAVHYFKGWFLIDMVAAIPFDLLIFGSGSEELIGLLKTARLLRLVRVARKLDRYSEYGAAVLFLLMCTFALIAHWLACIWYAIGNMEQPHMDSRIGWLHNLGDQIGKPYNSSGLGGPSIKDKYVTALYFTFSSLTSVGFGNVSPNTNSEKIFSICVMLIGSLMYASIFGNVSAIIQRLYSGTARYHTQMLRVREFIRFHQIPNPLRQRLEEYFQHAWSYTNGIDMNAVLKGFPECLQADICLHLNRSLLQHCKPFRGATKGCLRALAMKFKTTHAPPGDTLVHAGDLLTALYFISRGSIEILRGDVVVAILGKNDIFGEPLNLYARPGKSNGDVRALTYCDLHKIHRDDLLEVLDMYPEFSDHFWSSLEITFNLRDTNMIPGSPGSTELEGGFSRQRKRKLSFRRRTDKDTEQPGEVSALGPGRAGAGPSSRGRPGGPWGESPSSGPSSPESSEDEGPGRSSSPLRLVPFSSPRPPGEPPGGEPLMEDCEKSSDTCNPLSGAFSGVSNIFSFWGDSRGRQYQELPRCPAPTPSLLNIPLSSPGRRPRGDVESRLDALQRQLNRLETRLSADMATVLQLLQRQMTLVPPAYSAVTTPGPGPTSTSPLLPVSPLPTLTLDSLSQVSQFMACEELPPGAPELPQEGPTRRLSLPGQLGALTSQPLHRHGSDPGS
Chain of Hepatocyte nuclear factor 4-alpha (P41235 whole entry, the tested form may be a part): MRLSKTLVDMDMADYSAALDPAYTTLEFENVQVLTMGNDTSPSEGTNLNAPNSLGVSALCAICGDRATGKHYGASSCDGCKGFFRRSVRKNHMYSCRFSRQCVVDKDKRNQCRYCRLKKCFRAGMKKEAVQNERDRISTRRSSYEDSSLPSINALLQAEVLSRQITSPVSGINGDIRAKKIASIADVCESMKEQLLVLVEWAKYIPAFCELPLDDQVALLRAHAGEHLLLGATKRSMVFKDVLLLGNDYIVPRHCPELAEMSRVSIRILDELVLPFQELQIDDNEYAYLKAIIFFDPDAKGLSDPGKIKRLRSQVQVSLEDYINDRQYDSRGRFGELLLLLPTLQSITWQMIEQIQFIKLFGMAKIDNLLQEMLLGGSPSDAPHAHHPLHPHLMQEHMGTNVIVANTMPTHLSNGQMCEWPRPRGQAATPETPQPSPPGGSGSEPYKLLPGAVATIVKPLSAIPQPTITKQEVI
Chain of Photoreceptor-specific nuclear receptor (Q9Y5X4 whole entry, the tested form may be a part): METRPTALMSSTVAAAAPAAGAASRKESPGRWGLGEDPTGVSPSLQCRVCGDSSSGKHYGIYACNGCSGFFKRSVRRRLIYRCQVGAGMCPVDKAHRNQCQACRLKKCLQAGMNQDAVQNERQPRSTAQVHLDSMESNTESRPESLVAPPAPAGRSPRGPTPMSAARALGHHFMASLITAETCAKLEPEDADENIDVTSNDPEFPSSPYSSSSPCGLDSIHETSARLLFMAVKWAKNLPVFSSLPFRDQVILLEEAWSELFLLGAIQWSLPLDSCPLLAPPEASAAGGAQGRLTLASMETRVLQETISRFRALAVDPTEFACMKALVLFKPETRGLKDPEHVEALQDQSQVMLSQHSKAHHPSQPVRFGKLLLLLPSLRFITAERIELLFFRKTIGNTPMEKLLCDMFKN
Chain of Beta Lactamase (Q932Y6 whole entry): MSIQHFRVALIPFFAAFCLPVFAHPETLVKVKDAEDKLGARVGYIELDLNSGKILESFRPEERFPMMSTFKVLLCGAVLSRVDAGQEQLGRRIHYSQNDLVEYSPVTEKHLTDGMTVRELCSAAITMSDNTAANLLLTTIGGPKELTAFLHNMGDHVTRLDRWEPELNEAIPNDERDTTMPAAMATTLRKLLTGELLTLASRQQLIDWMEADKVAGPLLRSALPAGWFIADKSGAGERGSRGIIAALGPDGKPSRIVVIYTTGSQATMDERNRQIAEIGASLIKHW

Compound: CN(C)C(=O)c1cccc(-c2ccc([C@H]3[C@H](CO)N4CCCCN(Cc5cccnc5)C[C@@H]34)cc2)c1
AC50 [1]: 0.481 µM (active)

IC50 [2]: 2.25 µM (active)
Compound: CCCCCCC=C1CCC(CN2CCCC2)C1=O (stereo not drawn)

IC50 [3]: 8.01 µM (active)
Compound: COc1ccc(NC(=O)c2sc(=O)n(Cc3ccc(F)c(Cl)c3)c2C)cc1OC

IC50 [4]: 80 µM (inactive) | IC50 [5]: 20 µM (inactive)
Compound: CCOc1cccc(/C=C2\NC(=S)N(c3ccccc3)C2=O)c1O

Compound: Oc1ccc(/C=N/CCc2ccccc2)cc1
IC50 (cells [6]): > 29.9 µM (inactive) | EC50 (cells [7]): > 29.9 µM (inactive)

Compound: COc1ccc(-c2nc3cnccn3c2NC2CCCCC2)cc1-c1cccc(Cl)c1
AC50 [8]: 4.23 µM (active) | IC50 (CHO): 25.4 µM (inactive) | IC50 (Beta Lactamase): 6.78 µM (active) | AC50 [9]: 39.2 µM (active)

Compound: [O-]/[N+](=N/c1ccccc1)c1ccccc1
AC50 [10]: 50.1 µM (inconclusive) | AC50 [11]: 56.2 µM (inconclusive)
